Data set [1] is described as follows: ABTS radical scavenging assay. Particulars: for Effect of pH and ionic strength on ABTS antioxidant activity: ABTS radical solution in HPSEC buffers, 344 and 700 mM, pH 3.0, 5.0, 7.0; for ABTS radical scavenging value: SD. On the procedure:
ABTS radical activity is based on an antioxidant’s capacity to scavenge the ABTS’s oxidized state. For this, ABTS radical scavenging activity was performed in a 96-well microplate, following the method described by. The absorbance was measured with a multidetection plate reader (Synergy H1, Winooski, VT, USA). For each sample, the standard and control analyses were duplicated. All measurements were performed in duplicate. The results are expressed in µmol of Trolox equivalents/µmol of peptide. To test the antioxidant activity under different pH and ionic strength conditions, the ABTS radical solution was prepared using the same buffers employed in the HPSEC analysis.
(In gel filtration, larger molecules generally elute earlier.)

Another data set deals with Bifidobacterium species. Briefly: Probiotic growth curves. Particulars: B. longum BG3, B. animalis Bo, BB-12, BLC, B. breve; HdKTLR 262, HdKNL 262, HdVLPN 204, HdLPN 227 µg/mL; MRS broth, 24 h, 37 °C, OD 650 nm. It counts as cell-based. On the procedure: (§1) The effect of the peptides on probiotics was evaluated using the following probiotic Lactobacillus and Bifidobacterium species: L. acidophilus Ki (LAS), L. acidophilus La5, L. casei L26, L. plantarum 299V, L. rhamnosus RII, B. longum BG3 B. animalis spp. lactis BB12, B. animalis BLC, and B. animalis Bo. All the assays were performed using MRS broth supplemented with 0.5 g/L of L-cysteine. The peptides were combined with a 1/10 ratio of inoculum, containing 2% (v/v) of the probiotic and cultured for […] in MRS broth. For the positive control, deionized water was used instead of the peptides, with a 2% inoculum, while deionized water with MRS served as the negative control. Peptide wells with Bifidobacterium were sealed with paraffin to assure anaerobiosis conditions. The bacterial growth was monitored at 650 nm for 24 h at 37 °C in a microplate reader (Multiskan GO, Thermo Scientific, Finland), and the optical density (OD) was measured hourly. Growth curves were created by transforming the absorbance values in natural logarithms ln (Abs).

In the next data set the test system is Lactobacillus species. Briefly: Probiotic growth curves. Particulars: L. acidophilus Ki, La5, L. plantarum 299V, L. casei, L. rhamnosus RII; HdKTLR 262, HdKNL 262, HdVLPN 204, HdLPN 227 µg/mL; MRS broth, 24 h, 37 °C, OD 650 nm. It counts as cell-based. On the procedure:
as §1

Data set [2] is described as follows: High-performance size exclusion chromatography (HPSEC): molecular size and aggregation. It counts as physicochemical. Particulars: for Aggregation behaviour in HPSEC: Agilent AdvanceBio SEC 130 Å, isocratic, buffers 344 mM or 700 mM at pH 3.0, 5.0, 7.0, PDA detection. On the procedure:
The HPSEC column was eluted with 344 mM of a phosphate buffer at pH 7.0, replicating the conditions used to analyze the mucus peptide fraction in our previous article. During the analysis, we observed the formation of peptide aggregates, specifically oligomers, including dimers, trimers, and tetramers. Various buffer conditions were tested to determine if a particular pH and ionic strength would enable the peptides to expose their theoretical molecular weights, as specified in the GenScript technical datasheet. Since seawater typically has an ionic strength of approximately 700 mM [10], buffers with this ionic strength were tested at pH 3.0, 5.0, and 7.0, as well as at 344 mM of ionic strength.
The peptides’ molecular size validation was determined using high-performance size exclusion chromatography (HPSEC). An Agilent AdvanceBio SEC column (Agilent Technologies, London, UK), 2.7 µm in particle size, 130 Å in pore size, and 7.8 in inner diameter × 300 mm in length, was used. The column was eluted isocratically using various buffers with different pH and ionic strengths, namely, 344 mM at pH 7 (0.15 M of a phosphate buffer with NaH2PO4), 700 mM at pH 7 (0.15 M of a phosphate buffer with NaH2PO4 and NaCl), 344 mM at pH 5 (0. 15 M of an acetate buffer with acetic acid and NaCl), 700 mM at pH 5 (0.15 M of an acetate buffer with acetic acid and NaCl), 344 mM at pH 3 (0.05 M of a formate buffer with fomic acid and NaCl), and 700 mM at pH 3 (0.05 M of a formate buffer with formic acid and NaCl) at a flow rate of 1 mL/min. The sample injection volume was 10 µL. The instrument used was Waters 2690 with a photodiode array detector (PDA 190–600 nm). The software Empower 3 was used for data collection. To determine the molecular weights of the resulting chromatogram peaks, a calibration curve was made with the following protein standards: Ovalbumin (44,300 Da), Myoglobin (17,600 Da), Cytochrome C (12,327 Da), Aprotinin (6511 Da), Neurotensin (1672 Da), Angiotensin-II (1040 Da), Tyr-Phe dipeptide (328.4 Da), and L-tryptophan (204 Da).

Another data set has as its system P. aeruginosa biofilm. The data set is described as follows: Antibiofilm activity (crystal violet). It is filed as cell-based, Pseudomonas aeruginosa. Particulars: 24 h incubation, HdKTLR 262, HdKNL 262, HdPPP 130, HdVLPN 204, HdLPN 227 µg/mL, OD 595 nm. On the procedure: The antibiofilm activity was determined according to the following method, with some modifications. Taking the microplate from 24 h inhibition growth curves, the contents of the plate were discarded, and each well was carefully washed three times with distilled water to remove non-adherent cells. The adhered cells were fixed with 150 µL of methanol for 10 min. Then, the methanol was discarded, the plates were left to dry, and then, the fixed biofilm was stained with […] of crystal violet (CV) for 10 min. Excess stain was rinsed out by placing the plate under slow-running tap water. Once the plates were air-dried, the dye attached to the adherent cells was resolubilized by adding 150 µL of 33% (v/v) glacial acetic acid and agitated for 15 min. The optical density of the solution obtained was measured at 595 nm using a multidetection plate reader (Synergy H1, Winooski, VT, USA). All tests were carried out in duplicate, with a positive control using an inoculated culture in MH broth and a negative control using MH broth only. The results are presented as the percentage of biofilm formation, calculated according to the following formula, where the OD of the sample is the measured OD of the inoculated medium mixed with the peptides, and the OD of the positive control is the OD measured for the positive control.% Biofilm formation = (ODsample/ODpositive control) × 100(1)

A short description of another data set: ORAC assay. Particulars: fluorescence monitored 80 min, means (n ≥ 3) ± SD, nd: not detected. On the procedure: The ORAC assay followed the protocol outlined by Coscueta et al.. […] Fluorescence was monitored for 80 min at 1 min intervals. Each sample, standard, blank, or control, analysis was duplicated. The final ORAC values were expressed as µmol TE/µmol of peptide for the peptides and µmol TE /mg of protein for the digestion retentate and permeate contents.

Where [3] appears, read: pH 3 and 344 mM ionic strength, means (n ≥ 3) ± SD.
The mark [4] stands for this setting: pH 7.0 and 700 mM ionic strength, means (n ≥ 3) ± SD.

Entries after “also recorded” stand apart in the source; their conditions may differ. Marks after values point to notes of the source that are not given here.

With DPPNPKNL [HdKNL], the “Effect of pH and ionic strength on ABTS antioxidant activity” value (shortened to “Effect of pH and ionic strength”) in data set [1] is “remained unaffected by a decrease in pH”. The ABTS entry in data set [1] (peptide in H2O (HdPPP in DMSO), means (n ≥ 3) ± SD, nd: not detected) is reported as “no antioxidant activity was observed”. The “Effect on probiotic growth” value in the data set on Bifidobacterium species and in the data set with Lactobacillus species was “did not inhibit the growth” in each case. Besides, the “Aggregation behaviour in HPSEC” value in data set [2] is “aggregate formation increased at higher pH conditions; also recorded: aggregation was still observed”. Further, the “Biofilm formation versus control” value in the data set on P. aeruginosa biofilm was “substantially reduced biofilm production”. The ORAC in the data set “ORAC assay” (SD) is on record as 0.048 ± 0.002 ^a µmol TE/µmol Peptide.

As for EDNSELGQETPTLR [HdKTLR], the “Effect of pH and ionic strength” value in data set [1] is listed as “no observable antioxidant activity”. Moreover, the “Effect on probiotic growth” value in the data set on Bifidobacterium species and in the data set on Lactobacillus species was “did not inhibit the growth” in each case. The “Aggregation behaviour in HPSEC” value in data set [2] is recorded as “formation of aggregates into oligomers; also recorded: pronounced aggregation”. In addition, the “Molecular weight observed by HPSEC (aggregate)” value in data set [2] (buffers with ionic strengths of 344 mM and 700 mM at pH 7.0 and pH 5.0, theoretical molecular weight 1588.4 Da) is “approximately 7836 Da”. Besides, the “Biofilm formation versus control” value in the data set on P. aeruginosa biofilm is “substantially reduced biofilm production”.

With PFPGPLPN [HdLPN], the “Effect of pH and ionic strength” value in data set [1] is given as “significant decrease in antioxidant activity”. Besides, the entries for the “ABTS radical scavenging value” in data set [1] (setting [3]) and in data set [1] (setting [4]) were 0.012 ± 0.004 µmol TE/µmol of peptide and 0.283 ± 0.177 µmol TE/µmol of peptide, respectively. The “Effect on probiotic growth” value with Bifidobacterium species and with Lactobacillus species was “did not inhibit the growth” in each case. In data set [2], the “Aggregation behaviour in HPSEC” value is on record as “forming only dimers; also recorded: aggregation was still observed”. In the data set on P. aeruginosa biofilm, the “Biofilm formation versus control” value is reported as “substantially reduced biofilm production”. The ORAC in the data set “ORAC assay” is given as 0.195 µmol TE/µmol Peptide; in the data set “ORAC assay” (SD) it was 0.195 ± 0.030 ^b,c µmol TE/µmol Peptide.

In the case of VYPFPGPLPN [HdVLPN], the “Effect of pH and ionic strength” value in data set [1] is reported as “significant decrease in antioxidant activity”. Besides, the “ABTS radical scavenging value” in data set [1] (setting [3]) is listed as 0.163 ± 0.002 µmol TE/µmol of peptide; in data set [1] (setting [4]) it was 0.827 ± 0.021 µmol TE/µmol of peptide. For the same sequence, the “Effect on probiotic growth” value in the data set on Bifidobacterium species and with Lactobacillus species was “did not inhibit the growth” in each case. In addition, the “Aggregation behaviour in HPSEC” value in data set [2] is on record as “degree of polymerization was less prominent than in the other peptides; also recorded: aggregation was still observed”. The “Biofilm formation versus control” value in the data set on P. aeruginosa biofilm is listed as “substantially reduced biofilm production”. Besides, the values for the ORAC in the data set “ORAC assay” and in the data set “ORAC assay” (SD) were 1.560 µmol TE/µmol Peptide and 1.560 ± 0.110 ^c µmol TE/µmol Peptide, respectively.

(Values after article PMC11857211, “Bioprospecting Bioactive Peptides in Halobatrachus didactylus Body Mucus: From In Silico Insights to Essential In Vitro Validation” (Marine Drugs, 2025).)
